Results: US9850283B2, “Macrocyclic inhibitors of the PD-1/PD-L1 and CD80(B7-1)/PD-L1 protein/protein interactions” (BRISTOL-MYERS SQUIBB COMPANY, priority 2013, dated 2017)
Where two headings read alike, the source gives them in different places. Positions of bridges follow the written chain, without caps; N, C: chain ends. Non-standard residues stand in square brackets, D forms with d. Residues, ends and D or L forms follow the SMILES beside them. ξ: configuration not given here. Pro(5S-Me) = C[C@H]1CC[C@@H](C(=O)O)N1; dDopa = N[C@H](Cc1ccc(O)c(O)c1)C(=O)O; Bta = N[C@@H](Cc1csc2ccccc12)C(=O)O; ξPro(4R-OH) = O=C(O)C1C[C@@H](O)CN1; Hyp = O=C(O)[C@@H]1C[C@@H](O)CN1; NMeF = CN[C@@H](Cc1ccccc1)C(=O)O; hPhe = N[C@@H](CCc1ccccc1)C(=O)O; NMeNle = CCCC[C@H](NC)C(=O)O; NMeS = CN[C@@H](CO)C(=O)O; Pip = O=C(O)[C@@H]1CCCCN1; NMeA = CN[C@@H](C)C(=O)O; Dap = NC[C@H](N)C(=O)O; ξOrn = NCCCC(N)C(=O)O; ξP = O=C(O)C1CCCN1; ξC = NC(CS)C(=O)O; Sar = CNCC(=O)O

How the values were obtained:
[1] = target: T1, LK35.2-hPD-L1 cells / PE-labeled PD-1-Ig (Homo sapiens, UniProt Q9NZQ7); experiment: LK35.2-hPD-L1 cell binding high-content screening assay; assay type: cell-based
T1 construct: expressed in transfected cells; host or cells: LK35.2 mouse B cell line
Method in brief: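 Using overnight-cultured LK35.2-hPD-L1 mouse B cells, compound was co-incubated with phycoerythrin-tagged human PD-1-Ig (final 1 nM) at 37 °C for one hour. Unbound label was removed by triple dPBS washing prior to high-content image acquisition and analysis.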

[2] = target: T2, Human PD-L1/PD-1 (Homo sapiens, UniProt Q9NZQ7); experiment: HTRF PD-1-Ig/PD-L1-His binding assay (human PD-L1)
T2 construct: made in house; host or cells: HEK293T
Method in brief: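 Ig- and His-fused extracellular PD-1/PD-L1 binding in BSA/Tween-20 dPBS. HTRF with Eu anti-Ig (1 nM final) and APC anti-His (20 nM final).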

[3] = cluster symbol, cell line of CBA not given (LK35.2-hPD-L1 or 293T-hPD-L1), read-out: CBA IC50 cluster
[4] = cluster symbol, read-out: HTRF IC50 cluster
[5] = cell binding assay, cell line not given, cluster symbol, read-out: CBA IC50 cluster

T1 sequence (Q9NZQ7 19-290): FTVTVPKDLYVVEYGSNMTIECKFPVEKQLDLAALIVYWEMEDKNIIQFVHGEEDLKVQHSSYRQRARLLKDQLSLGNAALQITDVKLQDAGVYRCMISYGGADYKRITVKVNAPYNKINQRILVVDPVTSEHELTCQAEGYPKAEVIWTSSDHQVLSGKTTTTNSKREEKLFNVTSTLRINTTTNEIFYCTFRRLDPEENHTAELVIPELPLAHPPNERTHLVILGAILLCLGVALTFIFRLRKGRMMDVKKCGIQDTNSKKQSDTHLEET
T2 sequence (Q9NZQ7 with tags, fused parts or gaps): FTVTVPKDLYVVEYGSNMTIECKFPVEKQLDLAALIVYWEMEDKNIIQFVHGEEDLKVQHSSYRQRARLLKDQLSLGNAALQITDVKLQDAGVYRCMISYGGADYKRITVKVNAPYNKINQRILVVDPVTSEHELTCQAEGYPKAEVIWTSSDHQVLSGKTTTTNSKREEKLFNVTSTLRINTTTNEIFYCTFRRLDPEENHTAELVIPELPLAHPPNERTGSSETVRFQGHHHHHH

| Structure (SMILES) | IC50 [1, 3] [nM] | IC50 [2, 4] [nM] | IC50 [1, 5] [nM] | IC50 ([1]; cell binding assay, cell line not given, numeric value, read-out: CBA IC50 values) [nM] | IC50 ([2]; numeric value, read-out: HTRF IC50 values) [nM] |
| --- | --- | --- | --- | --- | --- |
| CCCC[C@H]1C(=O)N(C)[C@@H](CCCC)C(=O)N[C@@H](C)C(=O)N[C@H](C(=O)NCC(N)=O)CSCC(=O)N[C@@H](Cc2ccc(O)cc2)C(=O)N(C)[C@@H](C)C(=O)N[C@@H](CC(=O)O)C(=O)N2CCC[C@H]2C(=O)N[C@@H](Cc2c[nH]cn2)C(=O)N[C@@H](CCCCN)C(=O)N2C[C@H](O)CC2C(=O)N[C@@H](Cc2c[nH]c3ccccc23)C(=O)N[C@@H](CO)C(=O)N[C@@H](Cc2c[nH]c3ccccc23)C(=O)N1C (stereo partly drawn) [Example 1202] ({CH2CO}-Y[NMeA]DPHK[ξPro(4R-OH)]WSW[NMeNle][NMeNle]ACG-NH2; thioether N-14) | 0.158 to 4.71 | 0.385 to 6.74 | – | – | – |
| CCCC[C@H]1C(=O)N(C)[C@@H](CCCC)C(=O)N[C@@H](CC(C)C)C(=O)N[C@H](C(=O)NCC(N)=O)CSCC(=O)N[C@@H](Cc2ccc(O)cc2)C(=O)N(C)[C@@H](C)C(=O)N[C@@H](CC(N)=O)C(=O)N2CCC[C@H]2C(=O)N[C@@H](Cc2c[nH]cn2)C(=O)N[C@@H](CCCCN)C(=O)N2C[C@H](O)C[C@H]2C(=O)N[C@@H](Cc2c[nH]c3ccccc23)C(=O)N[C@@H](CCCCN)C(=O)N[C@@H](Cc2c[nH]c3ccccc23)C(=O)N1C [Example 5089] ({CH2CO}-Y[NMeA]NPHK[Hyp]WKW[NMeNle][NMeNle]LCG-NH2; thioether N-14) | – | 0.385 to 6.74 | 0.158 to 4.71 | – | – |
| CCCC[C@H]1C(=O)N(C)CC(=O)N[C@@H](CC(=O)O)C(=O)N[C@@H](C(C)C)C(=O)N(C)[C@@H](Cc2ccccc2)C(=O)N[C@@H](Cc2ccc(O)cc2)C(=O)N(C)CC(=O)N[C@@H](Cc2c[nH]c3ccccc23)C(=O)N[C@H](Cc2ccc(O)c(O)c2)C(=O)N[C@@H](CC(C)C)C(=O)N[C@H](C(=O)NCC(N)=O)CSCC(=O)N[C@@H](Cc2ccccc2)C(=O)N(C)[C@@H](Cc2ccccc2)C(=O)N1C [Example 3579] ({CH2CO}-F[NMeF][NMeNle][Sar]DV[NMeF]Y[Sar]W[dDopa]LCG-NH2; thioether N-13) | – | 6.76 to 30.3 | 0.158 to 4.71 | – | – |
| CCCC[C@H]1C(=O)N(C)[C@@H](CCCC)C(=O)N[C@@H](CCCNC(=N)N)C(=O)NC(C(=O)NCC(N)=O)CSCC(=O)N[C@@H](Cc2ccc(O)cc2)C(=O)N(C)[C@@H](C)C(=O)N[C@@H](CC(N)=O)C(=O)N2[C@@H](C)CC[C@H]2C(=O)N[C@@H](Cc2cnc[nH]2)C(=O)N[C@@H](CC(C)C)C(=O)N2CCC[C@H]2C(=O)N[C@@H](Cc2c[nH]c3ccccc23)C(=O)N[C@@H](CO)C(=O)N[C@@H](Cc2csc3ccccc23)C(=O)N1C (stereo partly drawn) [Example 9016] ({CH2CO}-Y[NMeA]N[Pro(5S-Me)]HLPWS[Bta][NMeNle][NMeNle]R[ξC]G-NH2; thioether N-14) | – | – | – | 3.28 | 5.94 |
| CCCC[C@H]1C(=O)N(C)CC(=O)N[C@@H](CC(=O)O)C(=O)N[C@@H](C(C)C)C(=O)N(C)[C@@H](Cc2ccccc2)C(=O)N[C@@H](Cc2ccc(O)cc2)C(=O)N(C)[C@@H](CCC(=O)O)C(=O)N[C@@H](Cc2c[nH]c3ccccc23)C(=O)N[C@@H](Cc2ccc(O)cc2)C(=O)N[C@@H](CC(C)C)C(=O)N[C@H](C(=O)NCC(N)=O)CSCC(=O)N[C@@H](Cc2ccccc2)C(=O)N(C)[C@@H](Cc2ccccc2)C(=O)N1C [Example 3512] (HELM PEPTIDE1{[O=C(C[*:3])[*:2]].F.[meF].[CCCC[C@@H](C(=O)[*:2])N(C)[*:1]].[Sar].D.V.[meF].Y.[meE].W.Y.L.C.G.[am]}$PEPTIDE1,PEPTIDE1,1:R3-14:R3$$$V2.0) | – | 0.385 to 6.74 | 4.78 to 72.9 | – | – |
| CCCC[C@H]1C(=O)N(C)[C@@H](CCCC)C(=O)N[C@@H](CCCNC(=N)N)C(=O)N[C@H](C(=O)NCC(N)=O)CSCC(=O)N[C@@H](Cc2ccc(O)cc2)C(=O)N2CCCC[C@H]2C(=O)N[C@@H](CC(=O)O)C(=O)N2CCC[C@H]2C(=O)N[C@@H](CN)C(=O)N[C@@H](CC(C)C)C(=O)N2C[C@H](O)C[C@H]2C(=O)N[C@@H](Cc2c[nH]c3ccccc23)C(=O)N[C@@H](CO)C(=O)N[C@@H](Cc2c[nH]c3ccccc23)C(=O)N1C [Example 1233] ({CH2CO}-Y[Pip]DP[Dap]L[Hyp]WSW[NMeNle][NMeNle]RCG-NH2; thioether N-14) | 0.158 to 4.71 | 6.76 to 30.3 | – | – | – |
| CCCC[C@H]1C(=O)N(C)CC(=O)N[C@@H](CC(=O)O)C(=O)N[C@@H](C(C)C)C(=O)N(C)[C@@H](Cc2ccccc2)C(=O)N[C@@H](Cc2ccc(O)cc2)C(=O)N(C)CC(=O)N[C@@H](Cc2c[nH]c3ccccc23)C(=O)N[C@@H](Cc2ccc(O)cc2)C(=O)N[C@@H](CC(C)C)C(=O)N[C@H](C(=O)NCC(N)=O)CSCC(=O)N[C@@H](CCc2ccccc2)C(=O)N(C)[C@@H](Cc2ccccc2)C(=O)N1C [Example 3082] ({CH2CO}-[hPhe][NMeF][NMeNle][Sar]DV[NMeF]Y[Sar]WYLCG-NH2; thioether N-13) | > 74.3 | > 30.5 | – | – | – |
| CCCC[C@H]1C(=O)N(C)CC(=O)N[C@@H](CC(=O)O)C(=O)N[C@@H](C(C)C)C(=O)N(C)[C@@H](Cc2cnc[nH]2)C(=O)N[C@@H](Cc2ccc(O)cc2)C(=O)N(C)CC(=O)N[C@@H](Cc2c[nH]c3ccccc23)C(=O)N[C@@H](Cc2ccc(O)cc2)C(=O)N[C@@H](CC(C)C)C(=O)N[C@H](C(=O)NCC(N)=O)CSCC(=O)N[C@@H](Cc2ccccc2)C(=O)N(C)[C@@H](Cc2ccccc2)C(=O)N1C [Example 3057] (HELM PEPTIDE1{[O=C(C[*:3])[*:2]].F.[meF].[CCCC[C@@H](C(=O)[*:2])N(C)[*:1]].[Sar].D.V.[meH].Y.[Sar].W.Y.L.C.G.[am]}$PEPTIDE1,PEPTIDE1,1:R3-14:R3$$$V2.0) | > 74.3 | > 30.5 | – | – | – |
| CCCC[C@H]1C(=O)N(C)[C@@H](CCCC)C(=O)NC(CCCN)C(=O)N[C@H](C(=O)NCC(N)=O)CSCC(=O)N[C@@H](Cc2ccc(O)cc2)C(=O)N(C)[C@@H](C)C(=O)N[C@@H](CC(N)=O)C(=O)N2CCCC2C(=O)N[C@@H](Cc2cnc[nH]2)C(=O)N[C@@H](CC(C)C)C(=O)N2CCC[C@H]2C(=O)N[C@@H](Cc2c[nH]c3ccccc23)C(=O)N[C@@H](CO)C(=O)N[C@@H](Cc2csc3ccccc23)C(=O)N1C (stereo partly shown) [Example 1042] ({CH2CO}-Y[NMeA]N[ξP]HLPWS[Bta][NMeNle][NMeNle][ξOrn]CG-NH2; thioether N-14) | 0.158 to 4.71 | 0.385 to 6.74 | – | – | – |
| CCCC[C@H]1C(=O)N(C)[C@@H](CCCC)C(=O)N[C@@H](CCCNC(=N)N)C(=O)N[C@H](C(=O)NCC(N)=O)C/C=C/C(=O)N[C@@H](Cc2ccc(O)cc2)C(=O)N(C)[C@@H](C)C(=O)N[C@@H](CC(N)=O)C(=O)N2CCCC2C(=O)N[C@@H](Cc2cnc[nH]2)C(=O)N[C@@H](CC(C)C)C(=O)N2CCC[C@H]2C(=O)N[C@@H](Cc2c[nH]c3ccccc23)C(=O)N[C@@H](CO)C(=O)N[C@@H](Cc2c[nH]c3ccccc23)C(=O)N1C (stereo partly shown) [Example 7012] | – | > 30.5 | > 74.3 | – | – |
| CCCC[C@H]1C(=O)N(C)[C@@H](CCCC)C(=O)N[C@@H](CCCNC(=N)N)C(=O)NC(C(=O)NCC(N)=O)CSCC(=O)N[C@@H](Cc2ccc(O)cc2)C(=O)N(C)[C@@H](CO)C(=O)N[C@@H](CC(N)=O)C(=O)N2CCC[C@H]2C(=O)N[C@@H](Cc2cnc[nH]2)C(=O)N[C@@H](CC(C)C)C(=O)N2C[C@H](O)C[C@H]2C(=O)N[C@@H](Cc2c[nH]c3ccccc23)C(=O)N[C@@H](CO)C(=O)N[C@@H](Cc2csc3ccccc23)C(=O)N1C (stereo partly shown) [Example 9039] ({CH2CO}-Y[NMeS]NPHL[Hyp]WS[Bta][NMeNle][NMeNle]R[ξC]G-NH2; thioether N-14) | – | 0.385 to 6.74 | 0.158 to 4.71 | – | – |
